These results are taken from US9976141B2, “Compositions and methods for inhibiting gene expression of Hif2alpha” (Arrowhead Madison Inc., priority 2015, dated 2018).

The data set relates to human (tumor) Hif2α (EPAS1) mRNA. Description: Hif2α knockdown in orthotopic RCC tumor bearing mice, single injection of RNAi trigger-delivery polymer conjugate, RT-qPCR (Table 7). Format: in vivo. The note with it: single tail vein injection, relative to isotonic glucose. A digest of the protocol:
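A single intravenous dose of Hif2α RNAi trigger–delivery polymer conjugate, or isotonic glucose vehicle, was given to nude mice with subcapsular A498-SEAP renal tumours (about 5–6 weeks old). At the indicated time, tumour RNA was assayed by biplex TaqMan qPCR against CycA, and relative expression was calculated by ΔΔCT versus vehicle.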

Where [1] appears, read: RNAi trigger 100 μg, polymer 064 250 μg.
Setting [2] is: RNAi trigger 100 μg, polymer 100A 250 μg.

As to “AD01893 (antisense UGUAAAACAAUUGUGUACUTT; sense AGUACACAAUUGUUUUACAT; Hif2alpha RNAi agent antisense strand; modified_base 2,4,6,8,10,12,14,15,18 /mod_base = “2′-deoxy-2′-fluoro corresponding nucleoside”; modified_base 1,3,5,7,9,11,13,16,17,19 /mod_base = “2′-O-methyl corresponding nucleoside”; modified_base 2,3,21 /mod_base = “5′-phosphorothioate corresponding nucleotide”; Hif2alpha RNAi agent sense strand; modified_base 3,4,7,9,11,13,17 /mod_base = “2′-deoxy-2′-fluoro corresponding nucleoside”; modified_base 1,2,5,6,8,10,12,14,15,16,18,19 /mod_base = “2′-O-methyl corresponding nucleoside”; modified_base 20 /mod_base = “3′-3′-linked nucleotide”; modified_base)”, the “Relative Expression day 4 (Hif2α mRNA in kidney tumor)” value under setting [1] is listed as 0.115.

As to “AD01657 (antisense TUUCAUGAAAUCGUUACGUTT; sense ACGUAACGAUUUCAUGAAAT; Hif2alpha RNAi agent antisense strand; modified_base 2,4,6,8,10,12,14,15,18 /mod_base = “2′-deoxy-2′-fluoro corresponding nucleoside”; modified_base 3,5,7,9,11,13,16,17,19 /mod_base = “2′-O-methyl corresponding nucleoside”; modified_base 2,21 /mod_base = “5′-phosphorothioate corresponding nucleotide”; Hif2alpha RNAi agent sense strand; modified_base 1,3,4,7,9,11,13,15,17,19 /mod_base = “2′-deoxy-2′-fluoro corresponding nucleoside”; modified_base 2,5,6,8,10,12,14,16,18 /mod_base = “2′-O-methyl corresponding nucleoside”; modified_base 20 /mod_base = “3′-3′-linked nucleotide”; modified_base 1 /)”, the “Relative Expression day 4 (Hif2α mRNA in kidney tumor)” value under setting [2] is on record as 0.256.

As for “AD02693 (antisense UUUCAUGAAAUCGUUACGUUG; sense ACGUAACGAUUUCAUGAAAT; Hif2alpha RNAi agent antisense strand; modified_base 2,4,6,8,10,14,16,18 /mod_base = “2′-deoxy-2′-fluoro corresponding nucleoside”; modified_base 1,3,5,7,9,11,12,13,15,17,19,20,21 /mod_base = “2′-O-methyl corresponding nucleoside”; modified_base 2,3,20,21 /mod_base = “5′-phosphorothioate corresponding nucleotide”; Hif2alpha RNAi agent sense strand; modified_base 5,7,9,13,15,17 /mod_base = “2′-deoxy-2′-fluoro corresponding nucleoside”; modified_base 1,2,3,4,6,8,10,11,12,14,16,18,19 /mod_base = “2′-O-methyl corresponding nucleoside”; modified_base 20 /mod_base = “3′-3′-linked nucleotide”; modi)”, the “Relative Expression day 4 (Hif2α mRNA in kidney tumor)” value (RNAi trigger 75 μg, polymer 064 187.5 μg) was 0.122.

Consider “AD01656 (antisense TUUCAUGAAAUCGUUACGUTT; sense ACGUAACGAUUUCAUGAAA; Hif2alpha RNAi agent antisense strand; modified_base 2,4,6,8,10,12,14,15,18 /mod_base = “2′-deoxy-2′-fluoro corresponding nucleoside”; modified_base 3,5,7,9,11,13,16,17,19 /mod_base = “2′-O-methyl corresponding nucleoside”; modified_base 2,21 /mod_base = “5′-phosphorothioate corresponding nucleotide”; Hif2alpha RNAi agent sense strand; modified_base 1,3,4,7,9,11,13,15,17,19 /mod_base = “2′-deoxy-2′-fluoro corresponding nucleoside”; modified_base 2,5,6,8,10,12,14,16,18 /mod_base = “2′-O-methyl corresponding nucleoside”; modified_base 2 /mod_base = “5′-phosphorothioate corresponding nucleotide)”, for which the “Relative Expression day 4 (Hif2α mRNA in kidney tumor)” value under setting [2] was 0.184.

In the case of “AD01891 (antisense UGUAAAACAAUUGUGUACUTT; sense AGUACACAAUUGUUUUACAT; Hif2alpha RNAi agent antisense strand; modified_base 2,4,6,8,10,13,14,16,18 /mod_base = “2′-deoxy-2′-fluoro corresponding nucleoside”; modified_base 1,3,5,7,9,11,12,15,17,19 /mod_base = “2′-O-methyl corresponding nucleoside”; modified_base 2,3,21 /mod_base = “5′-phosphorothioate corresponding nucleotide”; Hif2alpha RNAi agent sense strand; modified_base 3,5,8,9,11,13,17 /mod_base = “2′-deoxy-2′-fluoro corresponding nucleoside”; modified_base 1,2,4,6,7,10,12,14,15,16,18,19 /mod_base = “2′-O-methyl corresponding nucleoside”; modified_base 20 /mod_base = “3′-3′-linked nucleotide”; modified_base)”, the “Relative Expression day 4 (Hif2α mRNA in kidney tumor)” value under setting [1] is given as 0.189.

Consider “AD01554 (antisense TUUCAUGAAAUCGUUACGUTT; sense ACGUAACGAUUUCAUGAAAT; Hif2alpha RNAi agent antisense strand; modified_base 2,4,6,8,10,13,14,16,18 /mod_base = “2′-deoxy-2′-fluoro corresponding nucleoside”; modified_base 3,5,7,9,11,12,15,17,19 /mod_base = “2′-O-methyl corresponding nucleoside”; modified_base 2,3,21 /mod_base = “5′-phosphorothioate corresponding nucleotide”; Hif2alpha RNAi agent sense strand; modified_base 1,3,5,8,9,11,13,15,17,19 /mod_base = “2′-deoxy-2′-fluoro corresponding nucleoside”; modified_base 2,4,6,7,10,12,14,16,18 /mod_base = “2′-O-methyl corresponding nucleoside”; modified_base 20 /mod_base = “3′-3′-linked nucleotide”; modified_base 1)”, for which the “Relative Expression day 4 (Hif2α mRNA in kidney tumor)” value (RNAi trigger 115 μg, polymer 100A 375 μg) was 0.29.

Take “AD01256 (antisense TUUCAUGAAAUCGUUACGUTT; sense ACGUAACGAUUUCAUGAAAT; Hif2alpha RNAi agent antisense strand; modified_base 2,4,6,10,12,14,16,18 /mod_base = “2′-deoxy-2′-fluoro corresponding nucleoside”; modified_base 3,5,7,9,11,13,15,17,19 /mod_base = “2′-O-methyl corresponding nucleoside”; modified_base 8 /mod_base = “2′-3′ seco corresponding nucleotide”; modified_base 21 /mod_base = “5′-phosphorothioate corresponding nucleotide”; Hif2alpha RNAi agent sense strand; modified_base 1,3,5,7,9,11,13,15,17,19 /mod_base = “2′-deoxy-2′-fluoro corresponding nucleoside”; modified_base 2,4,6,8,10,12,14,16,18 /mod_base = “2′-O-methyl corresponding nucleoside”; modified_b)”: the “Relative Expression day 4 (Hif2α mRNA in kidney tumor)” value (RNAi trigger 80 μg, polymer 126 400 μg) came out at 0.22.

For the substance “AD01658 (antisense TUUCAUGAAAUCGUUACGUTT; sense ACGUAACGAUUUCAUGAAA; Hif2alpha RNAi agent antisense strand; modified_base 2,4,6,8,10,12,14,15,18 /mod_base = “2′-deoxy-2′-fluoro corresponding nucleoside”; modified_base 3,5,7,9,11,13,16,17,19 /mod_base = “2′-O-methyl corresponding nucleoside”; modified_base 2,3,21 /mod_base = “5′-phosphorothioate corresponding nucleotide”; Hif2alpha RNAi agent sense strand; modified_base 1,3,4,7,9,11,13,15,17,19 /mod_base = “2′-deoxy-2′-fluoro corresponding nucleoside”; modified_base 2,5,6,8,10,12,14,16,18 /mod_base = “2′-O-methyl corresponding nucleoside”; modified_base 2 /mod_base = “5′-phosphorothioate corresponding nucleoti)”, the “Relative Expression day 4 (Hif2α mRNA in kidney tumor)” value under setting [2] is given as 0.138.

Consider “AD02860 (antisense UUUCAUGAAAUCGUUACGUUG; sense ACGUAACGAUUUCAUGAAAT; Hif2alpha RNAi agent antisense strand; modified_base 2,3,8,10,14 /mod_base = “2′-deoxy-2′-fluoro corresponding nucleoside”; modified_base 1,4,5,6,7,9,11,12,13,15,16,17,18,19,20,21 /mod_base = “2′-O-methyl corresponding nucleoside”; modified_base 2,3,20,21 /mod_base = “5′-phosphorothioate corresponding nucleotide”; Hif2alpha RNAi agent sense strand; modified_base 7,8,9 /mod_base = “2′-deoxy-2′-fluoro corresponding nucleoside”; modified_base 1,2,3,4,5,6,10,11,12,13,14,15,16,17,18,19 /mod_base = “2′-O-methyl corresponding nucleoside”; modified_base 20 /mod_base = “3′-3′-linked nucleotide”; modi)”, for which the “Relative Expression day 4 (Hif2α mRNA in kidney tumor)” value (RNAi trigger 50 μg, polymer 064 125 μg) is recorded as 0.165.
